Test results published in ChEMBL document CHEMBL1123605, “Renin inhibitors. Dipeptide analogues of angiotensinogen incorporating transition-state, nonpeptidic replacements at the scissile bond” (J Med Chem, 1987).

Legend:
[1] = target: T1, Renin (Homo sapiens, UniProt P00797); assay: Inhibition against purified human renin
T1 sequence (P00797 whole entry): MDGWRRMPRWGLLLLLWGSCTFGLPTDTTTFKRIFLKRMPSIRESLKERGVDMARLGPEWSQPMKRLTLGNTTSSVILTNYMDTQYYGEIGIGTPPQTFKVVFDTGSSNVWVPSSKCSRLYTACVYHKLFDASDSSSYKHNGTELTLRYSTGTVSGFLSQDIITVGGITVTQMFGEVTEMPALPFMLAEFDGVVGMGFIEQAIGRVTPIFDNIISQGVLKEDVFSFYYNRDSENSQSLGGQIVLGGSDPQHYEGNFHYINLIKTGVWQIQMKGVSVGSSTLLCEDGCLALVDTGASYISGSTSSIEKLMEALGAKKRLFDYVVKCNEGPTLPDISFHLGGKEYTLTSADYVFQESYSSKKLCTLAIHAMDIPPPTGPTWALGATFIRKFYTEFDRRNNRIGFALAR

[2] = target: T2, Cathepsin D (Bos taurus) (UniProt P80209); assay: Percentage inhibition against cathepsin D at 1.0x10E-5M
T2 sequence (whole entry): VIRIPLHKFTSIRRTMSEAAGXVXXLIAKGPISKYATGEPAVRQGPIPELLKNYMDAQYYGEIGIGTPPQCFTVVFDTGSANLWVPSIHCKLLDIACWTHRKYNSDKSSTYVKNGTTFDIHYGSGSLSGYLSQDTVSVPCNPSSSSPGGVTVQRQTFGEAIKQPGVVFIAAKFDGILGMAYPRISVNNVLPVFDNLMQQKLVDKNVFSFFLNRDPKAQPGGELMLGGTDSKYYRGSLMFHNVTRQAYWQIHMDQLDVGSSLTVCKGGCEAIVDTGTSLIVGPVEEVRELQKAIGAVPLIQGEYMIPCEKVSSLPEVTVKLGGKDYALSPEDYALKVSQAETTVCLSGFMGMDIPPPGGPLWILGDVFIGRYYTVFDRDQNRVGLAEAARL

[3] = target: T3, Cathepsin D (Bos taurus, UniProt P80209); assay: Inhibition against cathepsin D
T3 sequence (P80209 whole entry): T2 sequence (whole entry)

[4] = target: Pepsin A (Sus scrofa) (UniProt P00791); assay: Percentage inhibition against pepsin; NI=no inhibition at 1.0x10E-5M
Sequence of Pepsin A (Sus scrofa) (P00791 60-385 limits assumed): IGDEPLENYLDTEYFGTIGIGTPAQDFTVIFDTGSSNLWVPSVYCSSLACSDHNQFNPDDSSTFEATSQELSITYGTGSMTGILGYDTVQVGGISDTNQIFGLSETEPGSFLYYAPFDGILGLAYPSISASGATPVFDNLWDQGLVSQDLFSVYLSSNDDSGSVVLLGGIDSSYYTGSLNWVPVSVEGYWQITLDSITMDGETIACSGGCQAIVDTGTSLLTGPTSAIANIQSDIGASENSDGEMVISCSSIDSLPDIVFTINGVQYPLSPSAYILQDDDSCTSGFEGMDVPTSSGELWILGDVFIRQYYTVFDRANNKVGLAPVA

[5] = target: T4, Renin (Rattus norvegicus) (UniProt P08424); assay: Percentage inhibition against rat plasma renin at 1.0x10E-5M; assay type: cell-free
T4 sequence (whole entry): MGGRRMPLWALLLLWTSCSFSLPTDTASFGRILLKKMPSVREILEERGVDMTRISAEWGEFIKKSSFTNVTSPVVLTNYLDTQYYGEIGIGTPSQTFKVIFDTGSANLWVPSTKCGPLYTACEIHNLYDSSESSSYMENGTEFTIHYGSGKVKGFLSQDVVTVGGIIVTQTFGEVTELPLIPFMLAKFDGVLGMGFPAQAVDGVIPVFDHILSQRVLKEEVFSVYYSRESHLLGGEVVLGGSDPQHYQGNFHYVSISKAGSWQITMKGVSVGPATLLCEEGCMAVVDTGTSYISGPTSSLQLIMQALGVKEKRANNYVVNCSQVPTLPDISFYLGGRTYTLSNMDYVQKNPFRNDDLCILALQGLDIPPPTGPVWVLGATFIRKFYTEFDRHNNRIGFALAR

[6] = target: T1, Renin; assay: Inhibition against purified human renal renin
[7] = target: T1, Renin; assay: Inhibition against human plasma renin; assay type: cell-free
[8] = target: T5, Renin (Rattus norvegicus, UniProt P08424); assay: Inhibition against rat plasma renin.; assay type: cell-free
T5 sequence (P08424 whole entry): T4 sequence (whole entry)

[9] = target: T4, Renin (Rattus norvegicus); assay: Percentage inhibition against rat plasma renin; assay type: cell-free; conditions: concentration not given here
[10] = target: T5, Renin; assay: Inhibition against rat plasma renin; assay type: cell-free

| Compound | IC50 [1] | inhibition [2] | IC50 [3] | inhibition [4] | inhibition [5] | IC50 [6] | IC50 [7] | IC50 [8] | other results |
| --- | --- | --- | --- | --- | --- | --- | --- | --- | --- |
| CC(C)S(=O)(=O)CC[C@H](O)[C@H](CC1CCCCC1)NC(=O)[C@H](Cc1ccccc1)NC(=O)[C@H](Cc1ccccc1)NC(=O)OC(C)(C)C | – | 0% | > 10 µM | No inhibition | 26% | 0.02 µM | 0.34 µM | > 10 µM | – |
| COc1ccc(C[C@H](NC(=O)OC(C)(C)C)C(=O)N[C@@H](Cc2c[nH]cn2)C(=O)N[C@@H](CC2CCCCC2)[C@@H](O)CCS(=O)(=O)C(C)C)cc1 | – | 0% | > 10 µM | No inhibition | 0% | 0.0091 µM | 0.041 µM | > 10 µM | – |
| CCOC(=O)N[C@@H](Cc1ccccc1)C(=O)N[C@@H](Cc1cnc[nH]1)C(=O)N[C@@H](CC1CCCCC1)[C@@H](O)CCS(=O)(=O)C(C)C | – | – | > 10 µM | – | – | 0.01 µM | 0.023 µM | > 10 µM | – |
| CC(C)S(=O)(=O)CC[C@H](O)[C@H](CC1CCCCC1)NC(=O)[C@H](Cc1c[nH]cn1)NC(=O)[C@H](Cc1ccccc1)NC(=O)CC(C)(C)C | – | 0% | > 10 µM | No inhibition | 30% | 0.006 µM | 0.019 µM | > 10 µM | – |
| CCS(=O)(=O)CC[C@H](O)[C@H](CC1CCCCC1)NC(=O)[C@H](Cc1c[nH]cn1)NC(=O)[C@H](Cc1ccccc1)NC(=O)OC(C)(C)C | – | 0% | – | – | – | – | – | – | inhibition [9]: 0% |
| CCS(=O)(=O)CC[C@H](O)[C@H](CC1CCCCC1)NC(=O)[C@H](C)NC(=O)[C@H](Cc1ccccc1)NC(=O)OC(C)(C)C | – | 18% | > 10 µM | No inhibition | 2% | 0.14 µM | 1 µM | > 10 µM | – |
| CC[C@H](C)[C@H](NC(=O)[C@@H](NC(O)[C@H](CC(C)C)NC(=O)[C@H](Cc1c[nH]cn1)NC(=O)[C@H](Cc1ccccc1)NC(=O)[C@@H]1CCCN1C(=O)[C@H](Cc1c[nH]cn1)NC(=O)OC(C)(C)C)C(C)C)C(=O)N[C@@H](Cc1c[nH]cn1)C(=O)O (some centres not stated) | – | – | – | – | – | – | 0.0007 µM | – | – |
| CCS(=O)(=O)CC[C@H](O)[C@H](CC1CCCCC1)NC(=O)[C@H](Cc1cnc[nH]1)NC(=O)[C@H](Cc1ccccc1)NC(=O)OC(C)(C)C | 0.0076 µM | – | > 10 µM | – | – | – | 0.028 µM | – | IC50 [10]: > 10 µM |
| CC(C)S(=O)(=O)CC[C@H](O)[C@H](CC1CCCCC1)NC(=O)[C@H](Cc1c[nH]cn1)NC(=O)[C@H](Cc1ccccc1)NC(=O)OC(C)(C)C | 0.0076 µM | 0% | 10 µM | – | – | – | 0.027 µM | – | inhibition [9]: 11%; IC50 [10]: 10 µM |
| CCOC(=O)N[C@@H](Cc1ccccc1)C(=O)N[C@@H](Cc1c[nH]cn1)C(=O)N[C@@H](CC1CCCCC1)[C@@H](O)CCS(=O)(=O)C(C)C | – | 0% | – | No inhibition | 12% | – | – | – | – |
| CC(C)S(=O)(=O)CC[C@H](O)[C@H](CC1CCCCC1)NC(=O)[C@H](C)NC(=O)[C@H](Cc1ccccc1)NC(=O)OC(C)(C)C | – | 22% | > 10 µM | No inhibition | 12% | 0.076 µM | 0.85 µM | > 10 µM | – |

Further lines, with some results ahead:

| IC50 [1] | inhibition [2] | IC50 [3] | inhibition [4] | inhibition [5] | IC50 [6] | IC50 [7] | IC50 [8] | Compound | other results |
| --- | --- | --- | --- | --- | --- | --- | --- | --- | --- |
| 2.4 µM | – | – | – | – | – | – | – | CC(C)CCS(=O)(=O)CC[C@H](O)[C@H](CC(C)C)NC(=O)[C@H](C)NC(=O)[C@H](Cc1ccccc1)NC(=O)OC(C)(C)C | – |
| 3.8 µM | – | – | – | – | – | – | – | CC(C)CCC(O)CC[C@H](O)[C@H](CC(C)C)NC(=O)[C@H](C)NC(=O)[C@H](Cc1ccccc1)NC(=O)OC(C)(C)C (some centres not stated) | – |
| 4.8 µM | – | – | – | – | – | – | – | CC(C)C[C@H](NC(=O)[C@H](C)NC(=O)[C@H](Cc1ccccc1)NC(=O)OC(C)(C)C)[C@@H](O)CCSC(C)C | – |
| 4.1 µM | – | – | – | – | – | – | – | CC(C)CSCC[C@H](O)[C@H](CC(C)C)NC(=O)[C@H](C)NC(=O)[C@H](Cc1ccccc1)NC(=O)OC(C)(C)C | – |
| – | – | 8 µM | No inhibition | 18% | 0.014 µM | 0.077 µM | > 10 µM | CC(C)C[C@H](NC(=O)[C@H](Cc1ccccc1)NC(=O)OC(C)(C)C)C(=O)N[C@@H](CC1CCCCC1)[C@@H](O)CCS(=O)(=O)C(C)C | – |
| 2.4 µM | – | – | – | – | – | – | – | CC(C)CCC(=O)CC[C@H](O)[C@H](CC(C)C)NC(=O)[C@H](C)NC(=O)[C@H](Cc1ccccc1)NC(=O)OC(C)(C)C | – |
| 5.5 µM | – | – | – | – | – | – | – | CC(C)CCSCC[C@H](O)[C@H](CC(C)C)NC(=O)[C@H](C)NC(=O)[C@H](Cc1ccccc1)NC(=O)OC(C)(C)C | – |
| 1.8 µM | – | – | – | – | – | – | – | CC(C)C[C@H](NC(=O)[C@H](C)NC(=O)[C@H](Cc1ccccc1)NC(=O)OC(C)(C)C)[C@@H](O)CCS(=O)(=O)CCc1ccccc1 | – |
| 1.6 µM | – | – | – | – | – | – | – | CC(C)C[C@H](NC(=O)[C@H](C)NC(=O)[C@H](Cc1ccccc1)NC(=O)OC(C)(C)C)[C@@H](O)CCS(=O)(=O)C(C)C | – |
| 3.2 µM | – | – | – | – | – | – | – | CC(C)C[C@H](NC(=O)[C@H](C)NC(=O)[C@H](Cc1ccccc1)NC(=O)OC(C)(C)C)[C@@H](O)CCS(=O)(=O)CC(C)C | – |
| 4.2 µM | – | – | – | – | – | – | – | CC(C)C[C@H](NC(=O)[C@H](C)NC(=O)[C@H](Cc1ccccc1)NC(=O)OC(C)(C)C)[C@@H](O)CCSCCc1ccccc1 | – |
| 5.2 µM | – | – | – | – | – | – | – | CC(C)CC[S+]([O-])CC[C@H](O)[C@H](CC(C)C)NC(=O)[C@H](C)NC(=O)[C@H](Cc1ccccc1)NC(=O)OC(C)(C)C (some centres not stated) | – |
